Test [1] is described as follows: Ex vivo free thiol determination in the human skin model system. As to conditions: non-toxic concentrations. The procedure: (§1) Dose response and time course analyses was performed initially in order to evaluate the impact of bucillamine on HaCaT cell viability. Then, selected non-toxic concentrations were further evaluated by BrdU incorporation to determine the ability of the test item to reduce the keratinocyte proliferation rate. In addition, the ability of the test items to reduce thiol moieties, and therefore loosen the blockage of the meibomian gland, was tested on stratum corneum obtained from human skin.
(§2) The cells were incubated without or with six concentrations of the test item, for 24, 48 and 72 hr at 37° C. with 5% CO2 under humidified conditions. At the end of each incubation period, cell viability was measured by MTT assay. A blank control was subtracted from all the measurements. HaCaT Turnover Rate Determination The proliferation rate of HaCaT cells upon treatments with the test item was examined by using the BrdU assay. Colorimetric evaluation of the turnover rate was recorded by ELISA reader. Ex Vivo Assessment in the Human Skin Model System The human skin organ culture was obtained from healthy patient undergoing plastic surgery. The study was initiated the day of surgery.
To isolate the free thiol from the mixture of the samples, samples were incubated with equal volume of TCA (trichloroacetic acid) for 5 min. […] The pellets were evaluated.

The subject of test [2] is 3D Sebocytes culture (human cell line SEBO662). The experiment in a line: Lipid accumulation (Oil-red-O staining) in 3D model culture of Sebocytes. In kind it is cell-based. As to conditions: 14 days incubation, lipid droplet surface area. The text has this: Since secretory cells (meibocytes) of meibomian glands, share similarities with that of the secretory cells (sebocytes) of sebaceous glands, as can be validated from their similar structure, similar function and their joint embryologic development (Knop 2011_IOVS) the effect of Thiol containing Lipids on lipid production can be evaluated in a 3D model culture of Sebocytes. See also: Barrault 2012, Immortalized sebocytes can spontaneously differentiate into a sebaceous-like phenotype when cultured as a 3D epithelium, Exp. Derm, 21:299-319
The effect of different compounds on lipid synthesis was evaluated, in a 3D model culture of Sebocytes. Drug candidates were compounds comprising a thiol group. Selenium disulfide (SeS2 dispersed in CarboxymethylCellulose—CMC) as a positive control. Since Sebocytes differentiation is associated with increased lipid synthesis and accumulation, evaluation of proliferation and differentiation was done by quantifying lipid accumulation in the 3D Sebocytes culture (human cell line—SEBO662). Lipid accumulation was evaluated by lipid staining with Oil red staining.
Sebocytes SEBO662 were cultured into a three dimension (3D) epithelium and differentiated to a sebaceous-like phenotype. The Sebocytes were treated or not (control) with the test compounds and incubated for 14 days. All experiments were performed 3 times. After incubation, tissues were snap-frozen. Formaldehyde-fixed cryo sections were stained using an Oil-red-O solution and counterstained using haematoxylin. For each test condition, the sections were observed using a light microscope equipped with a camera. Five pictures were taken per replicate, making 15 values per treatment condition. The lipid content in each sample was quantified by calculation of the lipid droplet surface area. Quantitative comparison of all data points between lipid's droplet surface area of tested compounds versus control was performed

Test [3] has as its system HaCaT cells. Briefly: HaCaT turnover rate determination (BrdU assay). In kind it is cell-based. The following applies: BrdU incorporation, non-toxic concentrations. The procedure: as §1, §2
A general note: Dividing cells build labelled thymidine or BrdU into new DNA.

The values below come from patent US11484516B2, “Agents for increasing meibomian gland lipid secretion” (Azura Ophthalmics Ltd., priority 2017, dated 2022).

The structures appear in SMILES notation.

For `CC(C)(S)C(=O)N[C@@H](CS)C(=O)O` [Bucillamine, bucillamine], the “increase of free thiol moieties (keratolytic efficacy)” value in test [1] was “approx. 6 fold”. Further, the “lipid accumulation in the upper region of the 3D Sebocytes (% of the control)” value is 115 % of the control in test [2] (0.01 μM), 172 % of the control in test [2] (0.1 μM) and 214 % of the control in test [2] (1 μM). In addition, the “keratostatic efficacy: turnover rate of the keratinocytes cells” value in test [3] was “reducing the turnover rate”.

Regarding `S=[Se]=S` [Selenium disulfide], the “lipid accumulation in the upper region of the 3D Sebocytes (% of the control)” value in test [2] (0.01 μM) is recorded as 282 % of the control; in test [2] (0.1 μM), 348 % of the control.
